Measured values: a melting point compilation (Tetko et al.; mined from patent text by program, amines drawn as free bases though some values may be those of a salt)

SMILES	melting point [°C]
c1ccc(Cn2c3c(c4ccccc42)CCC(Cc2nnn[nH]2)S3)cc1 (stereo unspecified)	160 to 165
O=C(O)c1ccc(C(=O)N2CCOCC2)nc1	181 to 183
O=C(O)c1cccc(-n2ccc(-c3ccc(OC(F)(F)F)cc3)n2)c1	191 to 194
O=[N+]([O-])c1ccccc1Nc1ccccc1F	58 to 59
COC1CCN(S(=O)(=O)c2ccc(S(N)(=O)=O)c(Cl)c2)CC1	165 to 167
CN1C(=O)CC[C@]2(C)c3ccc(Sc4ccc5nc6ccccc6c(=O)n5n4)cc3CC[C@@H]12	110 to 114
CCCCCCCCCC1COC(c2ccc(CCCCCCC)c(F)c2F)OC1 (stereo unspecified)	40.4
CC(C)(C)C(c1csc2ccccc12)[C@@H](OC(N)=O)c1nc(-c2ccccc2)c[nH]1 (stereo partly specified)	116 to 120
Nc1cc(F)ccc1C=C(Br)Br	72 to 73
COC(=O)c1ccc(-c2cccc(OCc3ccc(COC(=O)c4ccccc4)c(COC(=O)c4ccccc4)c3)c2)cc1	71 to 72
Cn1ccnc1Sc1ccc2[nH]nc(Nc3nccs3)c2c1	> 250
O=C1NC(=O)C2(CCS(=O)(=O)c3ccccc32)N1 (stereo unspecified)	280 to 281
Cc1ccc(C#CC2CCC3C4CCC5CC(O)CCC5(C)C4CCC23C)cc1 (stereo unspecified)	178 to 180
CN(C)CCCNC(=O)c1ccc(/C=C/c2ccc3c(=O)[nH]ncc3c2)cc1	287
COc1ccc(C(=O)Nc2ccccc2)cc1NS(=O)(=O)c1ccc(C(=O)O)cc1	212 to 214
O=C1CSC(=S)N1N=c1sc2ccc(C(F)(F)F)cc2s1	285 to 288
COc1cc2ncc(C#N)c(Nc3ccc(O)cc3Cl)c2cc1OC	> 250
COC(=O)c1ccc2nc(C(C)C)c(C(C)C)nc2c1	53 to 55
O=C(Nc1cccc2ccccc12)OCCCC(=O)c1ccccc1	95 to 97
COc1ccc(-c2cc(CO)nn2-c2ccc(S(N)(=O)=O)cc2)cc1I	196 to 198
COC(=O)c1ccccc1NC(=O)c1ccc(Br)c(C)c1	123
Nc1ccccc1Oc1ccccc1-c1ccccc1Oc1ccccc1N	175
COc1cc2ccc3c4cc5c(cc4ncc3c2cc1OC)OCO5	171
CC12CCC(C(=O)O)=CC1=CCC1C2CCC2(C)C(C(=O)C3CCCCC3)CCC12 (stereo unspecified)	217 to 220
CCN(CC)C(=O)c1ccc(-c2cc3c(Nc4cccc(Cl)c4)ncnc3[nH]2)cc1	> 250
CCCCNc1c(C(=O)OCC)c(C)nc2nc(C)c(C)nc12	97 to 99

SMILES	melting point [°C]
COC(=O)c1ccc2[nH]c(=O)oc(=O)c2c1	275 to 278
FC(F)(F)c1cc(Cl)c(-n2cc(I)c(-c3ccccc3)n2)c(Cl)c1	88 to 89
O=C1CCc2cc(Cl)c(S(=O)(=O)NCc3ccccc3)cc21	228 to 231
CCN(C)C(=O)c1cc(-c2ccccc2)oc1-c1ccc(OC)c(OC)c1	74
COc1ccc(Cc2nc3cc(Cl)cc(CCO)c3o2)cc1OC1CCCC1	74 to 76
Oc1ccc(-c2nsnc2Cl)cc1	135 to 136
FC(F)(F)c1cccc(CO[C@H]2CO[C@@H](c3ccccc3)OC2)c1	115 to 116
COc1cc(OC)nc(Sc2sccc2NC(=O)C(F)(F)F)n1	88 to 90
CC1(C(=O)O)COC2(CCCCCCC2)OC1	120 to 122
COC(=O)C=C(Nc1cc(CCCl)c([N+](=O)[O-])cc1OCc1ccccc1)C(F)(F)F	105 to 110
O=C(/C=C/c1ccc(Br)cc1)c1c(F)cccc1F	71
CCN(CC)CC1CCCN(CCNC(=O)N2c3ccccc3C(=O)Nc3cccnc32)C1 (stereo unspecified)	184 to 185
O=C1OCC(C(F)(F)F)N1c1nc(-c2ccc(Br)cc2)cs1 (stereo unspecified)	154 to 156
CN(C)C(=O)c1ccccc1N	53 to 54
CN(C)S(=O)(=O)c1cn(C)c2ccccc2c1=O	225 to 226
Nc1cc(-n2cc(C(=O)O)c(=O)c3cc(F)c(N4CC(N)C4)c(Cl)c32)cnc1Cl	280
O=C(Nc1ccc(Br)cn1)C(CC1CCCC1)c1ccc(Cl)c([N+](=O)[O-])c1 (stereo unspecified)	128 to 130
CC(C)(O)CN(c1ccc(F)cc1)[C@H]1c2cc(C#N)ccc2OC(C)(C)[C@@H]1O	70
CN(C=O)CNC(=O)c1snc(Cl)c1Cl	87 to 88
C#CCOc1cc(-c2cc(C)c(C(F)(F)F)n(C)c2=O)c(F)cc1Cl	107 to 108
CSC(=O)c1c(C(F)F)nc(C(F)(F)F)c(C(=O)SC)c1NC1CC1	85 to 86
CC(C)(C)OC(=O)Nc1cc([N+](=O)[O-])c2ncccc2c1	134 to 135
CCC(C)(CC)C(=O)O[C@H]1C[C@H](O)C=C2C=C[C@H](C)[C@H](CC[C@@H]3C[C@@H](O)CC(=O)O3)[C@H]21	152 to 154
CC(CC(=O)O)C(=O)N1CCC[C@H]1C(=O)O (stereo partly specified)	132 to 133
C=CCOc1ccc(S(=O)(=O)c2ccc(OCC=C)cc2)cc1	140 to 142
CC(=O)OCc1c(C(=O)C(=O)O)c2cc(-c3cccc(C)c3)ccc2n1Cc1ccc(C(C)(C)C)cc1	91 to 92

SMILES	melting point [°C]
CCOC(=O)NC(=S)SCC	60
CN(C)C(=O)Nc1cccc(Cl)c1	138 to 142
c1ccc(Cn2cnc3ccc(NC4=NCCN4)cc32)cc1	174 to 175
Cc1nn2c(-c3cccc(NC(=O)CC(C)C)c3)ccnc2c1C(=O)c1cccs1	137 to 139
O=S(=O)(c1ccc(F)cc1)c1ccc(S)cc1	116
CCOC(=O)CCc1cc(O)ccc1-c1ccc(-c2cccc(C)c2)c(CO)c1	57 to 59
O=C(N[C@@H]1CCc2ccccc21)c1nn(-c2ccc(F)cc2F)c2c1C1CCC2C1 (stereo partly specified)	158 to 161
O=C(NCC1CNc2ccccc2C1)OCc1ccccc1 (stereo unspecified)	115 to 116
Cc1ccc(NC(=O)c2cc([N+](=O)[O-])ccc2NC(=O)CF)c(C)c1	227 to 229
CCC(C(=O)C(C)C(O)C(C)CCCC(=O)c1c(NC(C)=O)cc(C)c(O)c1C(=O)O)C1OC(CC)(C2CCC(O)(CC)C(C)O2)CC1C (stereo unspecified)	190 to 192
Cc1cccc(C)c1NCCN(C)CC(O)COc1cccc2[nH]ncc12 (stereo unspecified)	120 to 121
CC(=O)c1cn(Cc2ccccc2)c(=O)n(Cc2ccc(F)cc2)c1=O	106 to 108
CCCc1cc(NC(=O)N2CCN(c3ccccc3OC)CC2)c(OC)nc1C	109 to 110
Fc1ccccc1-c1ccc(Br)cc1F	45 to 46
CCOC(=O)C1=C(N)N=C(OCC)C(C(=O)OCC)C1c1cccc(C(=O)OCC)c1 (stereo unspecified)	87
C=CCNc1nc(NCC)nc2ccc([N+](=O)[O-])cc12	227 to 228
O=[N+]([O-])c1ccc(-n2cccn2)c(F)c1	128 to 129
ON=C(Cc1cnccn1)c1ccc(Cl)cc1	134
CN1CCCCC1CCc1ccccc1NC(=O)c1ccc(OC(C)(C)C)cc1 (stereo unspecified)	91 to 93.5
CN1CCN=C(c2ccc([N+](=O)[O-])cc2)C1=O	191 to 192
CCCCC(=N)NC(=O)Nc1cccc(C(F)(F)F)c1	167 to 169
CC(C)(C)OC(=O)Nc1ccc2ccc(C#N)cc2c1	126 to 128
CCCCCCCCCCC(=O)NCc1cccc2c1C(=O)N(C1CCC(=O)NC1=O)C2=O (stereo unspecified)	138 to 139
CC(C)C1(C)N=C(c2nc3sccc3cc2C(=O)O)NC1=O (stereo unspecified)	221 to 223
Cc1ccc(S(=O)(=O)OCCC(=C(c2ccccc2)c2ccccc2)c2ccccc2)cc1	137 to 139
CC(C)(C)OC(=O)N1C=CN(CC#N)C(=O)[C@@H]1Cc1ccccc1	160 to 162

SMILES	melting point [°C]
CCC(CC)Nc1c(NCc2ccc(Cl)c(Cl)c2)c(=O)c1=O	268 to 269
CN1Cc2c(Cl)ncn2-c2ccccc2C1=S	198
CS(=O)(=O)N(CCN1C(=O)c2ccccc2C1=O)c1c(Cl)c(Cl)cc2[nH]c(=O)c(=O)[nH]c12	> 300
CCN1CCN(CC)C2SC(=C(C(=O)OC(C)C)C(=O)OC(C)C)SC21 (stereo unspecified)	84 to 86
CC(CCCc1ccccc1)Oc1cc(O)c2c(c1)CC(C)(C)CC2CC(N)=O (stereo unspecified)	67 to 72
Cn1c2ccccc2c(=O)c2ccc(Cl)n21	88.5 to 90.5
O=C(O)c1nc(-c2ccc(Cl)cc2Cl)n(-c2ccc(Cl)cc2)c1CO	138
CC(C)c1ccc(Nc2nc(N)nc3c2-c2ccccc2C3)cc1	178 to 180
COc1ccc2c(c1)C(c1ccncc1)Nc1cc(Cl)ccc1O2 (stereo unspecified)	186 to 188
CC(C)c1cccc(C(C)C)c1NC(=O)C1c2ccccc2COc2ccc(CO)cc21 (stereo unspecified)	157 to 158
CC(C)(C)c1cccc(C(C)(C)C)c1C(OC(N)=O)S(=O)(=O)NC(c1ccccc1)c1ccccc1 (stereo unspecified)	175 to 178
CNCC1(c2cccc(C(F)(F)F)c2)CCN(C(=O)CN2CCN(c3cnccn3)CC2)CC1	137 to 139
O=C1Nc2cccnc2N(CC#CCN2CCCCC2)c2ccccc21	198
COc1ccc(O)c(C2(NCC(C)=O)Sc3ccccc3N(C)C2=O)c1 (stereo unspecified)	164 to 168
CCOc1cc(Cc2cnc(N)nc2N)cc2c1OC(C)(C)C=C2	184 to 186
CC(=O)Nc1ccc(S(=O)(=O)NC(C)(C)C)cc1	200 to 201
C=C(C)[C@H]1CC[C@@](C)(O)[C@H](N[C@@H](C)C2CCCCC2)C1	63 to 64
CC(=O)c1ccc(OCc2ccccc2)c2c1OC(C)(C)C(=O)N2	124 to 126
N#Cc1ccc(NC(=O)c2cccc(OCc3ccc(F)cc3)c2)nc1	170 to 171
C=CCNc1nc(NCCCCCCC)c2scc(C)c2n1	56 to 57
CC(=O)Nc1ccc2c(c1)S(=O)(=O)N=C(NC(C)C)N2	260 to 262
c1cnc2[nH]cc(C3CN4CCC3CC4)c2c1 (stereo unspecified)	185
CC(=O)Nc1ccc(-c2cnc3c(c2)N(Cc2cc(Cl)ccc2C(F)(F)F)CCN3)cc1	244
